From the supplement of paper PMC10307832

Columns and labels:
Assay in all cases: relative viability (nuclei count vs DMSO), 5 days (fraction); higher = more cells survive
[1] = compound: CC1(C)CNc2cc(NC(=O)c3cccnc3NCc3ccncc3)ccc21 [Motesanib] + O=C(CCCCCCC(=O)Nc1ccccc1)NO [Vorinostat] (partner 1 µM)
Summary of the method: (§1)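 A single step with final 0.05% Triton X-100, 1% formaldehyde and 1 ug/ml Hoechst fixed the cells and stained nuclei 5 days after treatment. Lung cancer cell lines in 1536-well plates had been treated by pin tool the day after seeding with one drug alone or a fixed anchor-drug dose plus five library-drug doses (not always all listed) in √10 steps, and nuclei were counted on 4× images. Relative viability is the ratio of nuclei in treated wells to nuclei in vehicle wells, taken as the median of duplicate plates.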

[2] = compound: CC1(C)CNc2cc(NC(=O)c3cccnc3NCc3ccncc3)ccc21 [Motesanib] + CC(C)C[C@H](NC(=O)[C@H](Cc1ccccc1)NC(=O)c1cnccn1)B(O)O [Bortezomib] (partner 0.002 µM)
Summary of the method: as §1

[3] = compound: C[C@@]1(C(=O)Nc2ccc(F)nc2)CCCN1c1nc(Nc2cc(C3CC3)n[nH]2)c2cccn2n1 + NC(=O)Nc1cc(-c2cccc(F)c2)sc1C(=O)N[C@H]1CCCNC1 [AZD7762] (partner 0.2 µM)
Summary of the method: as §1

[4] = compound: C[C@@]1(C(=O)Nc2ccc(F)nc2)CCCN1c1nc(Nc2cc(C3CC3)n[nH]2)c2cccn2n1 + N=C(N)NC(=N)NCCc1ccccc1 [Phenformin] (partner 250 µM)
Summary of the method: as §1

Cell Line	relative viability ([1]; first compound 0.01 µM)	relative viability ([1]; first compound 0.03162 µM)	relative viability ([1]; first compound 0.1 µM)	relative viability ([1]; first compound 0.3162 µM)	relative viability ([1]; first compound 1 µM)	relative viability ([2]; first compound 0.01 µM)	relative viability ([2]; first compound 0.03162 µM)	relative viability ([2]; first compound 0.1 µM)	relative viability ([2]; first compound 0.3162 µM)	relative viability ([2]; first compound 1 µM)	relative viability ([3]; first compound 0.04 µM)	relative viability ([3]; first compound 0.1265 µM)	relative viability ([3]; first compound 0.4 µM)	relative viability ([3]; first compound 1.265 µM)	relative viability ([4]; first compound 0.04 µM)	relative viability ([4]; first compound 0.1265 µM)	relative viability ([4]; first compound 0.4 µM)	relative viability ([4]; first compound 1.265 µM)
HCC-44	1.14	1.02	1.17	1.08	1.09	0.905	0.877	0.994	0.974	0.885	1.02	0.954	0.989	0.979	0.178	0.116	0.134	0.0862
HCC-827	0.759	0.945	0.881	0.666	0.885	0.962	1.1	1.07	1.03	1.15	0.273	0.19	0.241	0.191	0.431	0.402	0.371	0.443
NCI-H1623	–	–	–	–	–	–	–	–	–	–	–	–	–	–	0.563	0.462	0.449	0.477
NCI-H2347	0.538	0.555	0.527	0.704	0.621	1.08	0.574	1.08	0.799	1.05	0.68	0.765	0.731	0.672	0.368	0.495	0.312	0.41
PC-14	0.702	0.867	0.778	0.806	0.771	0.87	0.975	0.95	0.81	1.06	0.391	0.394	0.308	0.348	0.708	–	0.517	0.523
NCI-H1651	0.475	0.605	0.575	0.583	0.581	0.914	0.883	0.932	0.873	0.929	0.52	0.371	0.409	0.447	0.283	0.287	0.269	0.283
HARA	0.573	0.706	0.538	0.638	0.565	1.06	1.19	1.21	1.11	1.11	0.42	0.227	0.73	0.198	0.431	0.386	0.395	0.442
NCI-H1650	0.642	0.6	0.714	0.67	0.571	0.204	–	0.191	0.185	0.207	–	–	–	–	0.411	0.387	0.376	0.193
NCI-H1395	0.56	0.526	0.707	0.794	0.677	–	–	–	–	–	0.395	0.416	0.396	0.364	0.428	0.42	0.5	0.481
LU99A	0.473	0.593	0.505	0.645	0.484	1.12	1.37	0.921	1.22	1.19	0.294	0.243	0.223	0.143	0.773	0.621	0.586	0.52
NCI-H1355	0.635	0.659	0.707	0.702	0.593	1.2	1.33	1.22	1.35	1.18	0.694	0.579	0.539	0.598	0.418	0.415	0.347	0.39
HCC-78	0.429	0.467	0.494	–	0.413	0.44	0.375	0.667	0.549	0.385	0.593	0.419	0.418	0.4	0.798	0.452	0.346	0.319
NCI-H1563	–	–	–	–	–	0.934	0.812	0.956	0.882	0.904	–	–	–	–	0.64	0.671	0.605	0.626
HCC-15	0.883	0.843	0.866	0.875	0.877	0.97	0.968	0.886	1.16	1.07	1.07	1.18	1.25	1.13	0.387	0.209	0.27	0.259
LK-2	0.271	0.311	0.386	0.433	0.486	–	–	–	–	–	0.179	0.203	–	0.179	0.251	0.178	0.166	0.202
COR-L23	0.45	0.387	0.53	0.44	0.459	1.01	0.974	1.04	1.11	0.914	–	–	–	–	0.454	0.407	0.406	0.241
NCI-H522	0.89	0.927	0.92	0.909	1.05	–	–	–	–	–	0.678	0.539	0.791	0.821	0.557	0.633	0.59	0.56
SW 900	0.542	0.404	0.574	0.649	0.59	–	–	–	–	–	0.541	0.688	0.5	0.561	0.566	0.544	0.596	0.461
A549	–	–	–	–	–	–	–	–	–	–	–	–	–	–	0.131	0.155	0.101	0.281
NCI-H1792	–	–	–	–	–	0.931	0.737	0.976	1.04	1.03	0.446	0.277	0.332	0.323	0.145	0.0792	0.208	0.189

Cell Line	relative viability ([1]; first compound 0.01 µM)	relative viability ([1]; first compound 0.03162 µM)	relative viability ([1]; first compound 0.1 µM)	relative viability ([1]; first compound 0.3162 µM)	relative viability ([1]; first compound 1 µM)	relative viability ([2]; first compound 0.01 µM)	relative viability ([2]; first compound 0.03162 µM)	relative viability ([2]; first compound 0.1 µM)	relative viability ([2]; first compound 0.3162 µM)	relative viability ([2]; first compound 1 µM)	relative viability ([3]; first compound 0.04 µM)	relative viability ([3]; first compound 0.1265 µM)	relative viability ([3]; first compound 0.4 µM)	relative viability ([3]; first compound 1.265 µM)	relative viability ([4]; first compound 0.04 µM)	relative viability ([4]; first compound 0.1265 µM)	relative viability ([4]; first compound 0.4 µM)	relative viability ([4]; first compound 1.265 µM)
NCI-H1703	–	–	–	–	–	0.25	0.264	0.228	0.192	0.265	0.145	0.111	0.13	0.12	–	–	–	–
SK-LU-1	0.792	0.745	0.839	0.743	0.813	1.11	1.48	1.3	1.38	1.58	–	–	–	–	0.476	0.396	0.361	0.409
COR-L 105	0.861	0.866	0.81	1.03	0.819	0.873	1.01	0.939	1.02	0.785	–	–	–	–	0.422	0.368	0.346	0.393
Calu-6	–	–	–	–	–	0.896	1.04	0.926	1.05	0.889	–	–	–	–	–	–	–	–
NCI-H358	0.641	0.67	0.71	0.819	0.649	–	–	–	–	–	0.389	0.392	0.171	0.282	0.212	0.144	0.113	0.115
NCI-H1944	0.52	0.562	0.51	0.634	0.537	–	–	–	–	–	0.53	0.497	0.419	0.354	0.169	0.153	0.136	0.133
NCI-H1648	0.314	–	–	0.557	0.421	–	–	–	–	–	0.671	0.608	0.586	0.676	–	–	–	–
EBC-1	–	–	–	–	–	0.637	0.56	0.557	0.537	0.559	–	–	–	–	–	–	–	–
NCI-H1299	–	–	–	–	–	1.02	1.02	1.04	1.01	1.05	–	–	–	–	–	–	–	–
NCI-H2228	0.667	0.539	0.737	0.528	0.612	0.957	1.13	0.881	1.28	1.01	–	–	–	–	0.223	0.196	0.171	0.232
NCI-H2342	0.702	0.77	0.715	0.704	0.751	–	–	–	–	–	0.475	0.375	0.404	0.323	0.574	0.43	0.46	0.44
IA-LM	0.91	0.936	0.953	0.935	0.767	0.879	0.704	0.816	0.819	0.783	–	–	–	–	–	–	–	–
SK-MES-1	1.13	1.12	1.25	1.16	1.16	–	–	–	–	–	–	–	–	–	0.699	0.632	0.559	0.635
NCI-H2170	0.797	0.851	0.804	0.837	0.818	–	–	–	–	–	0.836	0.864	0.744	0.791	0.432	0.396	0.419	0.357
SW 1573	0.77	0.799	0.738	0.834	1.04	1.17	1.02	1.09	1.03	0.928	–	–	–	–	0.232	0.218	0.228	0.214
NCI-H661	0.775	0.737	0.766	0.797	0.883	0.795	0.767	0.765	0.849	1.04	–	–	–	–	0.245	0.235	0.233	0.229
NCI-H1793	0.836	0.776	0.725	0.892	0.757	–	–	–	–	–	0.463	0.501	0.393	0.456	0.322	0.286	–	0.306
NCI-H520	0.664	0.759	0.687	0.734	0.686	0.482	0.747	0.432	0.653	0.693	–	–	–	–	0.819	0.301	0.487	0.416
NCI-H2023	0.729	0.606	0.615	0.838	0.723	0.934	1.07	0.887	0.966	1.09	–	–	–	–	0.354	0.271	0.294	0.189
NCI-H2009	0.671	0.636	0.823	0.729	0.71	1.07	1.05	1.05	1.2	1	–	–	–	–	0.539	0.493	0.479	0.481
